Laboratory results published in the supplement of paper PMC10307832.

Key:
Assay in all cases: relative viability (nuclei count vs DMSO), 5 days (fraction); higher = more cells survive
[1] = test system: NCI-H23
Procedure, shortened: (§1)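 Lung cancer cell lines, seeded in 1536-well plates, were treated the following day by pin tool with a single drug or with five library-drug doses (not always all listed) in √10 steps on top of a fixed anchor-drug dose. Cells were fixed and nuclei stained in one step after 5 days, and nuclei were counted. Relative viability is the nuclei count for treated wells divided by that for vehicle wells, reported as medians of duplicate plates.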

[2] = test system: COR-L 105
Procedure, shortened: as §1

[3] = test system: H3255
Procedure, shortened: as §1

[4] = test system: NCI-H520
Procedure, shortened: as §1

[5] = test system: LK-2
Procedure, shortened: as §1

[6] = test system: NCI-H596
Procedure, shortened: as §1

[7] = test system: NCI-H441
Procedure, shortened: as §1

[8] = test system: PC-3 [JPC-3]
Procedure, shortened: as §1

[9] = test system: ChaGo-K-1
Procedure, shortened: as §1

[10] = test system: SW 900
Procedure, shortened: as §1

[11] = test system: NCI-H1975
Procedure, shortened: as §1

[12] = test system: NCI-H1734
Procedure, shortened: as §1

[13] = test system: HCC-366
Procedure, shortened: as §1

[14] = test system: LOU-NH91
Procedure, shortened: as §1

[15] = test system: A-427
Procedure, shortened: as §1

[16] = test system: SK-MES-1
Procedure, shortened: as §1

[17] = test system: EMC-BAC-2
Procedure, shortened: as §1

[18] = test system: EKVX
Procedure, shortened: as §1

[19] = test system: NCI-H1666
Procedure, shortened: as §1

[20] = test system: NCI-H1755
Procedure, shortened: as §1

[21] = test system: NCI-H2170
Procedure, shortened: as §1

CCN(CC)CCCCNc1ncc2cc(-c3cc(OC)cc(OC)c3)c(NC(=O)NC(C)(C)C)nc2n1 + CC(=O)Nc1cccc(-n2c(=O)n(C3CC3)c(=O)c3c(Nc4ccc(I)cc4F)n(C)c(=O)c(C)c32)c1 [Trametinib] (partner 0.02 µM)
relative viability ([1]; first compound 0.01 µM): 0.321
relative viability ([1]; first compound 0.03162 µM): 0.341
relative viability ([1]; first compound 0.1 µM): 0.432
relative viability ([1]; first compound 0.3162 µM): 0.4
relative viability ([1]; first compound 1 µM): 0.319
relative viability ([2]; first compound 0.01 µM): 0.417
relative viability ([2]; first compound 0.03162 µM): 0.406
relative viability ([2]; first compound 0.1 µM): 0.483
relative viability ([2]; first compound 0.3162 µM): 0.45
relative viability ([2]; first compound 1 µM): 0.451
relative viability ([3]; first compound 0.01 µM): 0.627
relative viability ([3]; first compound 0.1 µM): 0.596
relative viability ([3]; first compound 0.3162 µM): 0.711
relative viability ([3]; first compound 1 µM): 0.566
relative viability ([4]; first compound 0.01 µM): 0.684
relative viability ([4]; first compound 0.03162 µM): 0.538
relative viability ([4]; first compound 0.1 µM): 0.722
relative viability ([4]; first compound 0.3162 µM): 0.287
relative viability ([4]; first compound 1 µM): 0.216
relative viability ([5]; first compound 0.01 µM): 0.856
relative viability ([5]; first compound 0.03162 µM): 0.649
relative viability ([5]; first compound 0.1 µM): 0.756
relative viability ([5]; first compound 0.3162 µM): 0.597
relative viability ([5]; first compound 1 µM): 0.299
relative viability ([6]; first compound 0.01 µM): 0.865
relative viability ([6]; first compound 0.03162 µM): 0.879
relative viability ([6]; first compound 0.1 µM): 0.677
relative viability ([6]; first compound 0.3162 µM): 0.778
relative viability ([6]; first compound 1 µM): 0.646
relative viability ([7]; first compound 0.01 µM): 0.545
relative viability ([7]; first compound 0.03162 µM): 0.506
relative viability ([7]; first compound 0.1 µM): 0.489
relative viability ([7]; first compound 0.3162 µM): 0.529
relative viability ([7]; first compound 1 µM): 0.408
relative viability ([8]; first compound 0.03162 µM): 0.698
relative viability ([8]; first compound 0.1 µM): 0.766
relative viability ([8]; first compound 0.3162 µM): 0.72
relative viability ([8]; first compound 1 µM): 0.683
relative viability ([9]; first compound 0.01 µM): 0.906
relative viability ([9]; first compound 0.03162 µM): 0.902
relative viability ([9]; first compound 0.1 µM): 0.951
relative viability ([9]; first compound 0.3162 µM): 0.962
relative viability ([9]; first compound 1 µM): 0.885
relative viability ([10]; first compound 0.01 µM): 0.787
relative viability ([10]; first compound 0.03162 µM): 0.916
relative viability ([10]; first compound 0.1 µM): 0.947
relative viability ([10]; first compound 0.3162 µM): 0.665
relative viability ([10]; first compound 1 µM): 0.522
relative viability ([11]; first compound 0.01 µM): 0.328
relative viability ([11]; first compound 0.03162 µM): 0.314
relative viability ([11]; first compound 0.1 µM): 0.345
relative viability ([11]; first compound 0.3162 µM): 0.405
relative viability ([11]; first compound 1 µM): 0.348
relative viability ([12]; first compound 0.01 µM): 0.665
relative viability ([12]; first compound 0.03162 µM): 0.678
relative viability ([12]; first compound 0.1 µM): 0.627
relative viability ([12]; first compound 0.3162 µM): 0.581
relative viability ([12]; first compound 1 µM): 0.407
relative viability ([13]; first compound 0.01 µM): 0.352
relative viability ([13]; first compound 0.03162 µM): 0.386
relative viability ([13]; first compound 0.1 µM): 0.437
relative viability ([13]; first compound 0.3162 µM): 0.358
relative viability ([13]; first compound 1 µM): 0.309
relative viability ([14]; first compound 0.01 µM): 0.758
relative viability ([14]; first compound 0.03162 µM): 0.771
relative viability ([14]; first compound 0.1 µM): 0.829
relative viability ([14]; first compound 0.3162 µM): 0.844
relative viability ([14]; first compound 1 µM): 0.766
relative viability ([15]; first compound 0.01 µM): 0.784
relative viability ([15]; first compound 0.03162 µM): 0.68
relative viability ([15]; first compound 0.1 µM): 0.694
relative viability ([15]; first compound 0.3162 µM): 0.595
relative viability ([15]; first compound 1 µM): 0.466
relative viability ([16]; first compound 0.01 µM): 0.601
relative viability ([16]; first compound 0.03162 µM): 0.562
relative viability ([16]; first compound 0.1 µM): 0.525
relative viability ([16]; first compound 0.3162 µM): 0.584
relative viability ([16]; first compound 1 µM): 0.512
relative viability ([17]; first compound 0.03162 µM): 0.986
relative viability ([17]; first compound 0.1 µM): 0.917
relative viability ([17]; first compound 0.3162 µM): 0.847
relative viability ([17]; first compound 1 µM): 0.83
relative viability ([18]; first compound 0.03162 µM): 0.4
relative viability ([18]; first compound 0.1 µM): 0.365
relative viability ([18]; first compound 0.3162 µM): 0.328
relative viability ([18]; first compound 1 µM): 0.311
relative viability ([19]; first compound 0.01 µM): 0.788
relative viability ([19]; first compound 0.03162 µM): 0.834
relative viability ([19]; first compound 0.1 µM): 0.93
relative viability ([19]; first compound 0.3162 µM): 0.973
relative viability ([19]; first compound 1 µM): 0.875
relative viability ([20]; first compound 0.01 µM): 0.83
relative viability ([20]; first compound 0.03162 µM): 0.776
relative viability ([20]; first compound 0.1 µM): 0.759
relative viability ([20]; first compound 0.3162 µM): 0.827
relative viability ([20]; first compound 1 µM): 0.55
relative viability ([21]; first compound 0.01 µM): 0.987
relative viability ([21]; first compound 0.03162 µM): 0.929
relative viability ([21]; first compound 0.1 µM): 0.894
relative viability ([21]; first compound 0.3162 µM): 1
relative viability ([21]; first compound 1 µM): 0.719
